Experimental data published in PubChem BioAssay (NCI).
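Following 48 hours of exposure in 96-well plates, responses at five concentrations were used to interpolate endpoints linearly. Definition used: TGI = concentration required for complete inhibition of growth.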

Assays:
Test in all cases: inhibition of tumour cell growth, NCI panel, 48 h
[1] = system: COLO 205 colon
[2] = system: U251 CNS
[3] = system: ACHN renal
[4] = system: SK-MEL-28 melanoma
[5] = system: SK-OV-3 ovarian
[6] = system: HCT-116 colon
[7] = system: KM12 colon
[8] = system: NCI-H23 lung
[9] = system: SR leukemia
[10] = system: HCT-15 colon

Structure (SMILES) | TGI [1] | TGI [2] | TGI [3] | TGI [4] | TGI [5] | TGI [6] | TGI [7] | TGI [8] | TGI [9] | TGI [10]
CC(=C(C(N)=O)C(N)=O)C1C=C(c2cccs2)CC(c2ccc(Cl)cc2)=C1O (stereo not given) | > 100 µM | > 100 µM | > 100 µM | > 100 µM | > 100 µM | > 100 µM | > 100 µM | > 100 µM | 81.6 µM | > 100 µM
O=C1[C@@H]2[C@@H](c3ccccc3)[C@]2(Cl)C(=O)[C@H]2[C@H](c3ccccc3)[C@@]12Cl | > 100 µM | > 100 µM | > 100 µM | > 100 µM | > 100 µM | > 100 µM | > 100 µM | > 100 µM | > 100 µM | > 100 µM
CCOC(=O)c1c(N2CCCC2)[nH]c(=O)c(C(c2ccco2)c2c(O)c(C(=O)OCC)c(N3CCCC3)[nH]c2=O)c1O | > 100 µM | > 100 µM | > 100 µM | > 100 µM | > 100 µM | > 100 µM | > 100 µM | > 100 µM | > 100 µM | > 100 µM
CN(C)c1ccccc1CN1CCCN(Cc2ccccc2N(C)C)C1c1ccncc1 | 30.3 µM | > 100 µM | 99.2 µM | 23.7 µM | 32.9 µM | 23.3 µM | 41.7 µM | 43 µM | 21.7 µM | 51.7 µM
Cc1cc(Cc2c(F)c(F)c(C(c3cc(C)no3)c3c(F)c(F)c(F)c(F)c3F)c(F)c2F)on1 (stereo not given) | > 100 µM | > 100 µM | > 100 µM | > 100 µM | > 100 µM | > 100 µM | > 100 µM | > 100 µM | > 100 µM | > 100 µM
COc1ccc(OC)c(CC2CCc3nc(N)nc(N)c3C2)c1 (stereo not given) | 29.2 µM | > 100 µM | > 65.8 µM | > 92.5 µM | > 100 µM | > 100 µM | > 100 µM | > 49.8 µM | > 69.8 µM | > 72.8 µM
Nc1nc(Cl)cc(NCCC2(CO)CCC2)n1 | > 100 µM | > 100 µM | > 100 µM | > 100 µM | > 100 µM | > 100 µM | > 100 µM | > 100 µM | > 100 µM | > 100 µM
O=C1/C(=C/c2cccc(Br)c2)CSC/C1=C\c1cccc(Br)c1 | 8.53 µM | 3.53 µM | 9.88 µM | 7.12 µM | 42 µM | 4.33 µM | 4.43 µM | 9.03 µM | > 100 µM | 15.4 µM
